Data on eight molecules can be found in ChEMBL document CHEMBL1649332, “Update on fusidic acid (CEM-102) tested against Neisseria gonorrhoeae and Chlamydia trachomatis” (Antimicrob Agents Chemother, 2010).

The MIC50 is an inhibitory concentration at the 50% level, which refers to growth in some studies and to a panel of isolates in others. Read a low MIC50 as greater potency. What is called MBC is the lowest tested concentration that kills the bacteria rather than only halting them. Broadly, the MIC90 is an inhibitory concentration at the 90% level, which refers to growth in some studies and to a panel of isolates in others.

The subject of data set [1] is Neisseria gonorrhoeae. Kind of data set: Antimicrobial activity against Neisseria gonorrhoeae assessed as resistant isolates by EUCAST method. In kind it is functional.
Data set [2] concerns Neisseria gonorrhoeae. Kind of data set: Antimicrobial activity against Neisseria gonorrhoeae assessed as susceptible isolates by EUCAST method. The data set is classed as functional.
The test system of data set [3] is Neisseria gonorrhoeae. Kind of data set: Antimicrobial activity against Neisseria gonorrhoeae isolates by CLSI agar dilution method. The data set is classed as functional. (In agar dilution the substance is mixed into plates at graded concentrations.)
For another data set, the system named is Chlamydia trachomatis. Kind of data set: Antimicrobial activity against Chlamydia trachomatis isolates. The following applies: for MBC / MIC90: Chlamydia trachomatis. In kind it is functional.
In data set [4] the test system is Neisseria gonorrhoeae. Kind of data set: Antimicrobial activity against Neisseria gonorrhoeae assessed as susceptible isolates by CLSI method. The data set is classed as functional.
For data set [5], the system named is Neisseria gonorrhoeae. Kind of data set: Antimicrobial activity against Neisseria gonorrhoeae assessed as resistant isolates by CLSI method. In kind it is functional.
Another data set has as its system Plasma. Kind of data set: Trough plasma concentration in human. The data set is classed as ADME, cell-free.
Data set [6] has as its system Neisseria gonorrhoeae. Kind of data set: Antimicrobial activity against Neisseria gonorrhoeae isolates up to 2 ug/ml by CLSI agar dilution method. In kind it is functional, organism-based.

≈ marks a conversion by molar mass, not a printed value. Calls of active or inactive are those of the source. The rule behind the calls is not given here.

With `CC[C@H]1OC(=O)[C@H](C)[C@@H](O[C@H]2C[C@@](C)(OC)[C@@H](O)[C@H](C)O2)[C@H](C)[C@@H](O[C@@H]2O[C@H](C)C[C@H](N(C)C)[C@H]2O)[C@](C)(O)C[C@@H](C)CN(C)[C@H](C)[C@@H](O)[C@]1(C)O` [AZITHROMYCIN], the Activity in the data set on Neisseria gonorrhoeae [1] is 5.7%. For the same molecule, in the data set with Neisseria gonorrhoeae [2], the Activity was determined as 80%. The MIC50 against Neisseria gonorrhoeae [3] worked out at 0.25 µg/mL (≈ 0.334 µM). In addition, in the data set with Chlamydia trachomatis, the MBC90 came out at 0.12 µg/mL (≈ 0.16 µM), the MBC amounted to 0.015 µg/mL (≈ 0.02 µM) and the MIC90 is 0.12 µg/mL (≈ 0.16 µM).
On to `CC[C@H]1OC(=O)[C@H](C)C(=O)[C@H](C)[C@@H](O[C@@H]2O[C@H](C)C[C@H](N(C)C)[C@H]2O)[C@](C)(OC)C[C@@H](C)C(=O)[C@H](C)[C@H]2N(CCCCn3cnc(-c4cccnc4)c3)C(=O)O[C@]12C` [TELITHROMYCIN], for which, in the data set on Chlamydia trachomatis, the MBC90 was 0.06 µg/mL (≈ 0.0739 µM), the MBC worked out at 0.015 µg/mL (≈ 0.0185 µM) and the MIC90 is 0.06 µg/mL (≈ 0.0739 µM).
In the data set with Chlamydia trachomatis, `C[C@H]1c2cccc(O)c2C(=O)C2=C(O)[C@]3(O)C(=O)C(C(N)=O)=C(O)[C@@H](N(C)C)[C@@H]3[C@@H](O)[C@@H]21.O` [DOXYCYCLINE] had an MBC90 of 0.06 µg/mL, an MBC of 0.015 µg/mL and an MIC90 of 0.06 µg/mL.
On to `CC1(C)S[C@@H]2[C@H](NC(=O)Cc3ccccc3)C(=O)N2[C@H]1C(=O)O` [PENICILLIN G], for which the Activity in the data set with Neisseria gonorrhoeae [1] was determined as 45.7%; with Neisseria gonorrhoeae [2], 22.9%; with Neisseria gonorrhoeae [4] it was 22.9%; in the data set on Neisseria gonorrhoeae [5], 45.7%. In the data set with Neisseria gonorrhoeae [3], this molecule registered an MIC50 of 1 µg/mL (≈ 2.99 µM).
The molecule `CC(=O)O[C@H]1C[C@@]2(C)[C@@H](C[C@@H](O)[C@H]3[C@@]4(C)CC[C@@H](O)[C@@H](C)[C@@H]4CC[C@@]32C)/C1=C(\CCC=C(C)C)C(=O)O` [FUSIDIC ACID] returned a Cmin with Plasma of 80 µg/mL. Further, the outcome in the data set on Neisseria gonorrhoeae [6] was Active. In the data set with Neisseria gonorrhoeae [3], this molecule had an MIC50 of 0.5 µg/mL (≈ 0.968 µM) and an MIC90 of 1 µg/mL (≈ 1.94 µM). In addition, in the data set with Chlamydia trachomatis, the MBC90 came out at 0.5 µg/mL (≈ 0.968 µM), the MBC was found to be 0.12 µg/mL (≈ 0.232 µM) and the MIC90 was found to be 0.5 µg/mL (≈ 0.968 µM).
For `CN(C)[C@@H]1C(O)=C(C(N)=O)C(=O)[C@@]2(O)C(O)=C3C(=O)c4c(O)cccc4[C@@](C)(O)[C@H]3C[C@@H]12` [TETRACYCLINE], the Activity in the data set with Neisseria gonorrhoeae [1] is recorded as 34.3%; in the data set with Neisseria gonorrhoeae [2] it was 45.7%; in the data set on Neisseria gonorrhoeae [4], 22.9%; in the data set with Neisseria gonorrhoeae [5], 34.3%. Also, the MIC50 in the data set on Neisseria gonorrhoeae [3] was found to be 1 µg/mL (≈ 2.25 µM).
`CO/N=C(\C(=O)N[C@@H]1C(=O)N2C(C(=O)O)=C(CSc3nc(=O)c(O)nn3C)CS[C@H]12)c1csc(N)n1` [CEFTRIAXONE]: the Activity with Neisseria gonorrhoeae [1] amounted to 0%; with Neisseria gonorrhoeae [2] it was 100%; in the data set on Neisseria gonorrhoeae [4], 100%.
In the data set with Chlamydia trachomatis, `CC[C@H]1OC(=O)[C@H](C)[C@@H](O[C@H]2C[C@@](C)(OC)[C@@H](O)[C@H](C)O2)[C@H](C)[C@@H](O[C@@H]2O[C@H](C)C[C@H](N(C)C)[C@H]2O)[C@](C)(OC)C[C@@H](C)C(=O)[C@H](C)[C@@H](O)[C@]1(C)O` [CLARITHROMYCIN] showed an MBC90 of 0.06 µg/mL (≈ 0.0802 µM), an MBC of 0.015 µg/mL (≈ 0.0201 µM) and an MIC90 of 0.06 µg/mL (≈ 0.0802 µM).
